Test results reported in PMC8662641, “Site-Specific Labeling of Endogenous Proteins Using CoLDR Chemistry” (Journal of the American Chemical Society, 2021).

What was measured:
BTK = BTK (Homo sapiens, UniProt Q06187); parameters: BTK kinase domain was expressed and purified as previously reported; made in house; method as in Reddi et al., J. Am. Chem. Soc. 2021, 143 (13), 4979–4992; details: ref Reddi et al., J. Am. Chem. Soc. 2021, 143 (13), 4979–4992; cited from earlier work
BTK-1h = target: T1, BTK-1h (Homo sapiens, UniProt Q06187); test: High-throughput screening with 1h-labeled BTK; format: binding
T1 construct: The BTK kinase domain was diluted to 2 μM in the buffer, and 2 μM 1h was added; made in house
Description: The collection was composed of BTK binding compounds obtained in our previous luminescence screen[37] (Data set S2). […] The resulting BTK-1h (50 μL) was added to the inhibitors.

[1] = Dataset S2A, 200 μM compound, BTK-1h, 32 °C, 10 min

Chain of BTK (Q06187 402-655 limits assumed): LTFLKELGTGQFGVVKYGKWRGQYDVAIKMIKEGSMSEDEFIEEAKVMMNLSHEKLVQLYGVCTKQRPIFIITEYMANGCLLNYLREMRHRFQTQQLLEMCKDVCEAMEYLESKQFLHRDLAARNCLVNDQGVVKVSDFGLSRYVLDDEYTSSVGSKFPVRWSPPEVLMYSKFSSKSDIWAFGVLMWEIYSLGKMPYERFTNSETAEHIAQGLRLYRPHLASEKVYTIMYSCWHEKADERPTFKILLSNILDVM
T1 sequence (Q06187 402-655): as the sequence (Q06187 402-655 limits assumed) above

SMILES	BTK Inhibition reported in luminescence assay* (BTK)	FI (650)/FI (620) (BTK-1h; [1])	FI (BTK-1h)/FI (BTK-1h+Inhibitor) at 620 nm (BTK-1h; [1])	FI (650)/FI (620) (BTK-1h; Dataset S2C, BTK-1h with inhibitor)	FI (BTK-1h)/FI (BTK-1h+Inhibitor) at 620 nm (BTK-1h; Dataset S2B, 200 μM inhibitor added to BTK-1h (2 μm))
Cn1cc(-c2[nH]c3cc(NC(=O)[C@H](N)C4CCCCC4)cc4c3c2C=NNC4=O)cn1 [PCM-0095372-002]	111	2.04	1.441	–	–
Cc1cc(O)c(-c2ccc([C@@H](C)CN)cc2)c2c1[nH]c(=O)c1sccc12 [PCM-0215772-001]	70.3	1.102	1.063	–	–
O=C(NC(NC(=S)Nc1ccc(F)c([N+](=O)[O-])c1)C(Cl)(Cl)Cl)C(c1ccccc1)c1ccccc1 (stereo not drawn) [PCM-0215199-001]	105.5	0.9898	1.025	–	–
CN1CCN(Cc2ccc(Nc3ncc(Cl)c(Nc4ccccc4S(=O)(=O)N(C)C)n3)cc2)CC1 [PCM-0215510-001]	67.2	1.221	1.15	–	–
COc1ccc(-c2nc(-c3cc(C(F)(F)F)cc(C(F)(F)F)c3)n(Cc3ccc(C(N)=O)cc3)c2-c2ccc(OC)cc2)cc1 [PCM-0215748-001]	57.1	0.9815	1.0289	–	–
Cc1nc(Nc2ccc(F)cc2)nc(N2CCc3ccccc3C2C)c1C.Cl (stereo not drawn) [PCM-0216015-001]	79.3	1.147	1.02	–	–
Cc1cc(Nc2cc(CN3CCOCC3)c3nc(C)c(Cc4ccc(Cl)cc4F)n3n2)n[nH]1 [PCM-0095222-002]	56.6	1.03	1.045	–	–
O=C(O)c1ccc(N2C(=O)/C(=C/c3ccc(-c4ccc([N+](=O)[O-])cc4)o3)C=C2c2ccccc2)cc1 [PCM-0095764-003]	98.1	1.233	0.999	–	–
CC(C)(C)c1cc(NC(=O)Nc2ccc(Oc3ccnc4[nH]c(=O)cnc34)cc2F)n(-c2ccccc2)n1 [PCM-0215780-001]	61.4	1.123	1.039	–	–
O=C(Nc1cccc2c(=O)cc(-c3nn[nH]n3)oc12)c1ccc(OCCCCc2ccccc2)cc1 [PCM-0095155-002]	73.8	1.503	1.506	–	–
CC/C(=C(/c1ccc(/C=C/C(=O)O)cc1)c1ccc2[nH]ncc2c1)c1ccc(F)cc1Cl [PCM-0216010-001]	81.1	1.58	1.142	–	–
CN(C)C/C=C/C(=O)Nc1ccc(C(=O)Nc2cccc(Nc3ncc(Cl)c(-c4c[nH]c5ccccc45)n3)c2)cc1 [PCM-0213464-002, THZ1 2HCl]	116.6	2.745	2.341	2.341	–
CN(Cc1ccc(C(C)(C)C)cc1)Cc1cccc2ccccc12.Cl [PCM-0086068-001]	62.3	0.9972	1.029	–	–
Cc1ccc(C(=O)Nc2ccc(CN3CCN(C)CC3)c(C(F)(F)F)c2)cc1C#Cc1cnc2cccnn12 [PCM-0095174-003]	92.4	1.022	1.075	–	–
CC#CC(=O)N1CC[C@@H](n2c(=O)n(-c3ccc(Oc4ccccc4)cc3)c3c(N)ncnc32)C1 [PCM-0215519-001, ONO-4059]	–	–	2.544	–	4.404
Cn1cc(-c2cc(Oc3cc(F)c(NC(=O)C4(C(=O)Nc5ccccc5)CC4)cc3F)ccn2)cn1 [PCM-0216116-001]	88.8	1.3565	1.092	–	–
COc1cc2nccc(Oc3ccc(NC(=O)Nc4cc(C)on4)c(Cl)c3)c2cc1OC [PCM-0094927-002]	84.1	1.123	1.05	–	–
